In ChEMBL document CHEMBL3588774, “Tyrosyl-DNA Phosphodiesterase I Inhibitors from the Australian Plant Macropteranthes leichhardtii” (J Nat Prod, 2015):
Calls of active or inactive are those of the source. The calls are words filed in the database; no cut-off is given here.

Legend:
[1] = biological target: T1, Tyrosyl-DNA phosphodiesterase 1 (Homo sapiens, UniProt Q9NUW8); assay: Inhibition of Tdp1 (unknown origin) incubated for 30 mins using 5'-/6-TAMN/AGGATCTAAAAGACTT/3BHQ_2/-3' substrate by microplate reader based assay
[2] = biological target: T1, Tyrosyl-DNA phosphodiesterase 1; assay: Inhibition of Tdp1 (unknown origin) up to 40 uM incubated for 30 mins using 5'-/6-TAMN/AGGATCTAAAAGACTT/3BHQ_2/-3' substrate by microplate reader based assay

T1 sequence (Q9NUW8 whole entry): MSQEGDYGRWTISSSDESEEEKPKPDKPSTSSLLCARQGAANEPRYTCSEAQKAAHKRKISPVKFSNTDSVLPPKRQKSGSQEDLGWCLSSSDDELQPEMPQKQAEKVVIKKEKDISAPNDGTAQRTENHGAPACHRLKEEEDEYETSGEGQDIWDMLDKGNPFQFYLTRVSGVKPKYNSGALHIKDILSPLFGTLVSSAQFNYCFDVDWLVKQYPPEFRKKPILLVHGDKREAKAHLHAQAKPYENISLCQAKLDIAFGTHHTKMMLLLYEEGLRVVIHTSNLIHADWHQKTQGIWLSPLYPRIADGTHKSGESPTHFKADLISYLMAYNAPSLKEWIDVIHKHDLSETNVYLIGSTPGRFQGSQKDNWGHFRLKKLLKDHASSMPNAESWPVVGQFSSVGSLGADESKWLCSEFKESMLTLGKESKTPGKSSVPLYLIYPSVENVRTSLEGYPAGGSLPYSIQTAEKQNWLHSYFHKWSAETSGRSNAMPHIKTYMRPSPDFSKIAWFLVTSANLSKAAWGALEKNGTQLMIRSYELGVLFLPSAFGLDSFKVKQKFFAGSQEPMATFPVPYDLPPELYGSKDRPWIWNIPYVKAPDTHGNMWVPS

Structure (SMILES) | IC50 [1] | inhibition [2]
COc1cc(C[C@@H](CO)O[C@@H]2O[C@H](COC(=O)c3cc(O)c(O)c(O)c3)[C@@H](O)[C@H](O)[C@H]2O)ccc1O | 1 µM | 
COc1cc([C@@H]2O[C@H]3[C@H](O[C@H]2COC(=O)c2cc(O)c(O)c(O)c2)O[C@H](CO)[C@@H](O)[C@@H]3O)ccc1O |  | inactive
COc1ccc(O[C@@H]2O[C@H](COC(=O)c3cc(O)c(O)c(O)c3)[C@@H](O)[C@H](O)[C@H]2O)cc1OC | 1 µM | 
COc1cc(O[C@@H]2O[C@H](COC(=O)c3cc(O)c(O)c(O)c3)[C@@H](O)[C@H](O)[C@H]2O)cc(OC)c1OC |  | inactive
COc1cc([C@@H]2O[C@H]3[C@H](O[C@H]2CO)O[C@H](COC(=O)c2cc(O)c(O)c(O)c2)[C@@H](O)[C@@H]3O)ccc1O |  | inactive
